Test results published in patent US5294609A, “DNA gyrase inhibitors and pharmaceutical preparations therefor” (Hoffmann-LaRoche Inc., priority 1991, dated 1994).
≈ marks a conversion by molar mass, not a printed value.

What was measured:
DNA gyrase = molecular target: T1, DNA gyrase (Escherichia coli, UniProt P0AES6); test: Inhibition of DNA gyrase activity (DNA gyrase supercoiling assay); assay type: biochemical, E. coli H560; conditions: relaxed PUC18 substrate
T1 construct: supercoiling of relaxed pUC18 plasmid
Procedure: The inhibition of DNA gyrase activity was measured using a DNA gyrase supercoiling assay according to R. Otter & N. Cozzarelli:Methods in Enzymology, Vol. 100, pp 171-180 (1983). DNA gyrase was isolated from E. coli H560, and relaxed PUC18 plasmed was used as substrate. The activities as regards inhibition of DNA gyrase activity, expressed as maximum non-effective concentration of the test compound (MNC in μg/ml) are compiled in the following Table 4: […]

[1] = Physicochemical properties of compound Ia
S. pyogenes 15 = test: Antibacterial activity in vitro (MIC, agar dilution); assay type: cell-based; conditions: Streptococcus pyogenes, agar dilution (BB2 + 1% Isovitalex + 7.5% sheep blood + metadione), inoculum 10^4 CFU/spot, read-out: minimum inhibitory concentration (MIC)
From the text: (§1) In the following table there are complied the minimum inhibitory concentrations (MIC; μg/ml) of some representative compounds of formula I against a series of pathogenic microorganisms.
(§2) Agar dilution (BB2 + 1% Isovitalex + 7.5% sheep blood + metadione),
(§3) Inoculum: 10^4 CFU/spot;

B. catarrhalis RA 117 = test: as above; assay type: cell-based; conditions: Moraxella catarrhalis, RA117, agar dilution (BB2 + 1% Isovitalex + 7.5% sheep blood + metadione), inoculum 10^4 CFU/spot, read-out: minimum inhibitory concentration (MIC)
From the text: as §1, §2, §3

S. aureus 25923 = test: as above; assay type: cell-based; conditions: Staphylococcus aureus, agar dilution (BB2 + 1% Isovitalex + 7.5% sheep blood + metadione), inoculum 10^4 CFU/spot, read-out: minimum inhibitory concentration (MIC)
From the text: as §1, §2, §3

S. faecalis 6 = test: as above; assay type: cell-based; conditions: Enterococcus faecalis, agar dilution (BB2 + 1% Isovitalex + 7.5% sheep blood + metadione), inoculum 10^4 CFU/spot, read-out: minimum inhibitory concentration (MIC)
From the text: as §1, §2, §3

E. coli B = test: as above; assay type: cell-based; conditions: Escherichia coli, agar dilution (BB2 + 1% Isovitalex + 7.5% sheep blood + metadione), inoculum 10^4 CFU/spot, read-out: minimum inhibitory concentration (MIC)
From the text: as §1, §2, §3

S. aureus 887 = test: as above; assay type: cell-based; conditions: Staphylococcus aureus, agar dilution (BB2 + 1% Isovitalex + 7.5% sheep blood + metadione), inoculum 10^4 CFU/spot, read-out: minimum inhibitory concentration (MIC)
From the text: as §1, §2, §3

N. meningitidis 69480 = test: as above; assay type: cell-based; conditions: Neisseria meningitidis, agar dilution (BB2 + 1% Isovitalex + 7.5% sheep blood + metadione), inoculum 10^4 CFU/spot, read-out: minimum inhibitory concentration (MIC)
E. coli DC2 = test: as above; assay type: cell-based; conditions: Escherichia coli, agar dilution (BB2 + 1% Isovitalex + 7.5% sheep blood + metadione), inoculum 10^4 CFU/spot, read-out: minimum inhibitory concentration (MIC)
strain NR0484 = test: Streptomycin sensitivity of strain NR0484; assay type: cell-based, Streptomyces sp. NR0484 (Streptomyces filipinensis); conditions: Streptomyces, ISP medium No. Z (Difco), read-out: Streptomycin sensitivity (M.I.C.)
Procedure: (§4) The taxonomic studies were done according to the procedure adopted by the International Streptomyces Project (ISP) using the media recommended by Shining, E. B. and D. Gottlieb (Method for characterization of Streptomyces species; Intern. J. Syst. Bact. 16:313-340, 1966) and by Waksman, S. A. (Classification, identification and description of genera and species; in The Actinomycetes Vol. II; The Williams and Wilkins Co., Baltimore, 1961). All cultures were incubated at 27° C. for 15 days. The colour scheme in the Colour Harmony Manual (4th ed., 1958; Container Corporation of America, Chicago) was used to describe the pigmentation of the colonies. Sodium chloride tolerance of the strains and their growth at various temperatures were tested on ISP medium No. 3 (Difco) containing 0.15% yeast extract; and streptomycin sensitivity of the strains were tested on ISP medium No. Z (Difco).

S. filipinensis IFO12860 = test: Streptomycin sensitivity of S. filipinensis IFO12860; assay type: cell-based; conditions: Streptomyces filipinensis, IFO12860, read-out: Streptomycin sensitivity (M.I.C.)
Procedure: as §4

Compound | maximum non-effective concentration of the test compound (MNC) (DNA gyrase) [µg/mL] | MIC (S. pyogenes 15) [µg/mL] | MIC (B. catarrhalis RA 117) [µg/mL] | MIC (S. aureus 25923) [µg/mL] | MIC (S. faecalis 6) [µg/mL] | MIC (E. coli B) [µg/mL] | MIC (S. aureus 887) [µg/mL] | MIC (N. meningitidis 69480) [µg/mL] | MIC (E. coli DC2) [µg/mL] | also measured
COC(=O)[C@@H]1CSCc2c(O)cc(O)c(C)c2C(=O)OC[C@H](NC(=O)OC(C)(C)C)C(=O)N1 [Example 2, t-butyl (4R,7S)-1,3,4,5,6,7,8,10-octahydro-12,14-dihydroxy-4-methoxycarbonyl-11-methyl-6,10-dioxo-9,2,5-benzoxathiaazacyclododecine-7-carbamate] | 0.1 |  |  |  |  |  |  |  |  | maximum non-effective concentration of the test compound (MNC) (DNA gyrase; listed as 13): 0.05 µg/mL
Cc1c(O)cc(O)c2c1C(=O)OC[C@H](NC(=O)OC(C)(C)C)C(=O)N[C@H](C(=O)O)CSC2 [Example 3, (4R,7S)-7-(L-t-butoxyformamido)-1,3,4,5,6,7,8,10-octahydro-12,14-dihydroxy-11-methyl-6,10-dioxo-9,2,5-benzoxathiaazacyclododecine-4-carboxylic acid] | 5 |  |  |  |  |  |  |  |  | 
Cc1c(O)cc(O)c2c1C(=O)OC[C@H](N)C(=O)N[C@H](C(=O)O)CSC2 [Example 4, (4R,7S)-7-amino-1,3,4,5,6,7,8,10-octahydro-12,14-dihydro-11-methyl-6,10-dioxo-9,2,5-benzoxathiaazacyclododecine-4-carboxylic acid] | 1 |  |  |  |  |  |  |  |  | 
COC(=O)[C@@H]1CSCc2c(OC(C)=O)cc(OC(C)=O)c(C)c2C(=O)OC[C@H](N)C(=O)N1 [Example 5, methyl (4R,7S)-12,14-diacetoxy-7-amino-1,3,4,5,6,7,8,10-octahydro-11-methyl-6,10-dioxo-9,2,5-benzoxathiaazacyclododecine-4-carboxylate] | 10 |  |  |  |  |  |  |  |  | 
COC(=O)[C@@H]1CSCc2c(O)cc(O)c(C)c2C(=O)OC[C@H](N)C(=O)N1 [Example 6, methyl (4R,7S)-7-amino-1,3,4,5,6,7,8,10-octahydro-12,14-dihydro-11-methyl-6,10-dioxo-9,2,5-benzoxathiaazacyclododecine-4-carboxylate] | 2 |  |  |  |  |  |  |  |  | 
Cc1c(O)cc(O)c2c1C(=O)OC[C@H](N)C(=O)NCCSC2 [Example 9, (S)-7-amino-4,5,7,8-tetrahydro-12,14-dihydroxy-11-methyl-9,2,5-benzoxathiaazacyclododecine-6,10(1H,3H)-dione] | 1 |  |  |  |  |  |  |  |  | 
CO/N=C(\C(=O)N[C@H]1COC(=O)c2c(C)c(OC(C)=O)cc(OC(C)=O)c2CSC[C@@H](C(=O)OC)NC1=O)c1csc(N)n1 [Example 10, methyl (4R,7S)-12,14-diacetoxy-7-[(Z)-2-(2-amino-4-thiazolyl) -2-(methoxyimino)acetamido]-1,3,4,5,6,7,8,10-octahydro-11-methyl-6,10-dioxo-9,2,5-benzoxathiaazacyclododecine-4-carboxylate] | 10 |  |  |  |  |  |  |  |  | 
Cc1c(O)cc(O)c2c1C(=O)OC[C@H](NC(=O)[C@@H]1[C@H](O)CCN1C(=O)[C@@H](N)CO)C(=O)N[C@H](C(=O)N[C@@H](C)C(=O)O)CSC2 [Example 12, N-[[(4R,7S)-1,3,4,5,6,7 8,10-octahydro-12,14-dihydroxy-7-[[(3R)-3-hydroxy-1-L-seryl-L-prolyl]amino]-11-methyl-6,10-dioxo-9,2,5-benzoxathiaazacyclododecin-4-yl]carbonyl]-L-alanine] | 5 |  |  |  |  |  |  |  |  | solubility (in words) [1]: water soluble
COC(=O)[C@@H]1CSCc2c(O)cc(OC)c(C)c2C(=O)OC[C@H](O)C(=O)N1 [Example 41, methyl (4R,7S)-1,3,4,5,6,7,8,10-octahydro-7,14-dihydroxy-12-methoxy-11-methyl-6,10-dioxo-9,2,5-benzoxathiaazacyclododecine-4-carboxylate] | 0.1 | 16 | 4 | 32 | 32 | 128 | 32 | 8 |  | 
CCOC(=O)[C@@H]1CSCc2c(O)cc(OC)c(C)c2C(=O)OC[C@H](NC=O)C(=O)N1 [Example 69, ethyl (4R,7S)-7-formamido-1,3,4,5,6,7,8,10-octahydro-14-hydroxy-12-methoxy-11-methyl-6,10-dioxo-9,2,5-benzoxathiaazacyclododecine-4-carboxylate] | 0.05 | 4 | 4 | 128 | 16 | 32 | 32 |  | 16 | 
C=CCNC(=O)[C@@H]1CSCc2c(O)cc(OC)c(C)c2C(=O)OC[C@H](NC(=O)OC(C)(C)C)C(=O)N1 [Example 84, (4R,7S)-7-tert-butoxycarbonylamino-1,3,4,5,6,7,8,10-octahydro-14-hydroxy-l2-methoxy-11-methyl-6,10-dioxo-9,2,5-benzoxathiaazacyclododecine-4-carboxylic acid allylamide] | 0.1 | 16 | 4 | 32 | 32 | > 128 | 16 | 4 | > 128 | 
COC(=O)[C@@H]1CSCc2c(O)cc(OC)cc2C(=O)OCCC(=S)N1 [Example 101, methyl (4R)-1,3,4,5,6,7,8,10-octahydro-14-hydroxy-12-methoxy-10-oxo-6-thioxo-9,2,5-benzoxathiaazacyclododecine-4-carboxylate] | 0.1 | 16 | 4 | 16 | 32 | 64 | 16 | 8 | 64 | 
CCOC(=O)[C@@H]1CSCc2c(O)cc(OC)c(C)c2C(=O)OC[C@H](NC(C)=S)C(=O)N1 [Example 102, ethyl (4R,7S)-1,3,4,5,6,7,8,10-octahydro-14-hydroxy-12-methoxy-11-methyl-6,10-dioxo-7-thioacetamido-9,2,5-benzoxathiaazacyclododecine-4-carboxylate] | 0.25 | 8 | 2 | 16 | 16 | 64 | 8 | 2 | 64 | 
COC(=O)N[C@H]1COC(=O)c2c(C)c(OC)cc(O)c2CSC[C@@H](C(=O)OC)NC1=O [Example 137, Methyl (4R,7S)-1,3,4,5,6,7,8,10-octahydro-14-hydroxy-12-methoxy-4-methoxycarbonyl-11-methyl-6,10-dioxo-9,2,5-benzoxathiaazacyclododecine-7-carbamate] | 0.2 | 8 | 4 | 128 | 64 | 64 | 32 | 8 | 64 | 
[H]/N=C(/N)N[C@H]1[C@H](O)[C@@H](O)[C@H](O[C@@H]2O[C@@H](C)[C@](O)(C=O)[C@H]2O[C@@H]2O[C@@H](CO)[C@H](O)[C@@H](O)[C@@H]2NC)[C@@H](N/C(N)=N\[H])[C@@H]1O [Streptomycin] |  |  |  |  |  |  |  |  |  | MIC (strain NR0484): 6300 µg/mL (≈ 10.8 mM); MIC (S. filipinensis IFO12860): 6300 µg/mL (≈ 10.8 mM)
